Laboratory results: ChEMBL document CHEMBL1938345, “Design, synthesis and cytotoxic activity of novel spin-labeled rotenone derivatives” (Bioorg Med Chem Lett, 2012)
Converted amounts (≈) assume the structure as drawn.

Assays:
Type in all cases: functional, cell-based
A549 = assay: Cytotoxicity against human A549 cells by SRB assay
DU-145 = assay: Cytotoxicity against human DU145 cells by SRB assay
KB = assay: Cytotoxicity against human KB cells by SRB assay
[1] = Cytotoxicity against human KBVIN cells by SRB assay
[2] = Homo sapiens, DU-145, read-out: IC50
[3] = Homo sapiens, KB, read-out: IC50
[4] = Homo sapiens, KBVIN, read-out: IC50

Structure (SMILES) | IC50 (A549; a549) [µg/mL] | IC50 (DU-145; du-145) [µg/mL] | IC50 (KB; kb) [µg/mL] | IC50 ([1]; kbvin) [µg/mL] | IC50 (A549; Homo sapiens, A549, read-out: IC50) [µg/mL] | IC50 (DU-145; [2]) [µg/mL] | IC50 (KB; [3]) [µg/mL] | IC50 [1, 4] [µg/mL]
C=C(C)[C@H]1Cc2c(ccc3c2O[C@@H]2COc4cc(OC)c(OC)cc4[C@@H]2/C3=N\OC(=O)C2CC(C)(C)N([O])C(C)(C)C2)O1 | 0.651 (≈ 1.1 µM) | 0.488 (≈ 0.825 µM) | 0.523 (≈ 0.884 µM) | 0.358 (≈ 0.605 µM) | – | – | – | –
C=C(C)[C@H]1Cc2c(ccc3c2O[C@@H]2COc4cc(OC)c(OC)cc4[C@@H]2/C3=N\OC(=O)C2CC(C)(C)N([O])C2(C)C)O1 (some centres not stated) | 0.471 (≈ 0.815 µM) | 0.322 (≈ 0.557 µM) | 0.56 (≈ 0.969 µM) | 0.298 (≈ 0.516 µM) | – | – | – | –
C=C(C)[C@H]1Cc2c(ccc3c2O[C@@H]2COc4cc(OC)c(OC)cc4[C@@H]2[C@@H]3OC(=O)CNC(=O)OC2CC(C)(C)N([O])C(C)(C)C2)O1 | 0.624 (≈ 0.957 µM) | 0.45 (≈ 0.69 µM) | 0.51 (≈ 0.783 µM) | 0.41 (≈ 0.629 µM) | – | – | – | –
C=C(C)[C@H]1Cc2c(ccc3c2O[C@@H]2COc4cc(OC)c(OC)cc4[C@@H]2[C@@H]3OC(=O)[C@H](Cc2c[nH]c3ccccc23)NC(=O)OC2CC(C)(C)N([O])C(C)(C)C2)O1 | 0.631 (≈ 0.808 µM) | 0.477 (≈ 0.611 µM) | 0.565 (≈ 0.724 µM) | 0.414 (≈ 0.53 µM) | – | – | – | –
C=C(C)[C@H]1Cc2c(ccc3c2O[C@@H]2COc4cc(OC)c(OC)cc4[C@@H]2[C@@H]3OC(=O)C2CC(C)(C)N([O])C2(C)C)O1 (some centres not stated) | 0.533 (≈ 0.944 µM) | 0.277 (≈ 0.491 µM) | 0.443 (≈ 0.785 µM) | 0.241 (≈ 0.427 µM) | – | – | – | –
C=C(C)[C@H]1Cc2c(ccc3c2O[C@@H]2COc4cc(OC)c(OC)cc4[C@@H]2[C@@H]3OC(=O)[C@H](C)NC(=O)OC2CC(C)(C)N([O])C(C)(C)C2)O1 | 0.65 (≈ 0.976 µM) | 0.417 (≈ 0.626 µM) | 0.442 (≈ 0.664 µM) | 0.357 (≈ 0.536 µM) | – | – | – | –
C=C(C)[C@H]1Cc2c(ccc3c2O[C@@H]2COc4cc(OC)c(OC)cc4[C@@H]2/C3=N\OC(=O)C2=CC(C)(C)N([O])C2(C)C)O1 | 0.738 (≈ 1.28 µM) | 0.426 (≈ 0.74 µM) | 0.633 (≈ 1.1 µM) | 0.62 (≈ 1.08 µM) | – | – | – | –
C=C(C)[C@H]1Cc2c(ccc3c2O[C@@H]2COc4cc(OC)c(OC)cc4[C@@H]2[C@@H]3OC(=O)C2CC(C)(C)N([O])C(C)(C)C2)O1 | 0.523 (≈ 0.904 µM) | 0.266 (≈ 0.46 µM) | 0.408 (≈ 0.705 µM) | 0.092 (≈ 0.159 µM) | – | – | – | –
C=C(C)[C@H]1Cc2c(ccc3c2O[C@@H]2COc4cc(OC)c(OC)cc4[C@@H]2[C@@H]3OC(=O)C2=CC(C)(C)N([O])C(C)(C)C2)O1 | 0.578 (≈ 1 µM) | 0.322 (≈ 0.558 µM) | 0.427 (≈ 0.74 µM) | 0.299 (≈ 0.518 µM) | – | – | – | –
C=C(C)[C@H]1Cc2c(ccc3c2O[C@@H]2COc4cc(OC)c(OC)cc4[C@@H]2[C@@H]3OC(=O)[C@H](CC(C)C)NC(=O)OC2CC(C)(C)N([O])C(C)(C)C2)O1 | 0.521 (≈ 0.736 µM) | 0.443 (≈ 0.626 µM) | 0.483 (≈ 0.682 µM) | 0.355 (≈ 0.502 µM) | – | – | – | –
C=C(C)[C@H]1Cc2c(ccc3c2O[C@@H]2COc4cc(OC)c(OC)cc4[C@@H]2[C@@H]3OC(=O)[C@@H](NC(=O)OC2CC(C)(C)N([O])C(C)(C)C2)C(C)C)O1 | 0.615 (≈ 0.886 µM) | 0.451 (≈ 0.65 µM) | 0.497 (≈ 0.716 µM) | 0.381 (≈ 0.549 µM) | – | – | – | –
C=C(C)[C@H]1Cc2c(ccc3c2O[C@@H]2COc4cc(OC)c(OC)cc4[C@@H]2[C@@H]3OC(=O)[C@H](Cc2ccccc2)NC(=O)OC2CC(C)(C)N([O])C(C)(C)C2)O1 | 0.713 (≈ 0.961 µM) | 0.462 (≈ 0.623 µM) | 0.509 (≈ 0.686 µM) | 0.383 (≈ 0.516 µM) | – | – | – | –
C=C(C)[C@H]1Cc2c(ccc3c2O[C@@H]2COc4cc(OC)c(OC)cc4[C@@H]2C3=O)O1 [ROTENONE] | – | – | – | – | 0.901 (≈ 2.28 µM) | 0.465 (≈ 1.18 µM) | 0.513 (≈ 1.3 µM) | 0.595 (≈ 1.51 µM)
C=C(C)[C@H]1Cc2c(ccc3c2O[C@@H]2COc4cc(OC)c(OC)cc4[C@@H]2[C@@H]3OC(=O)C2=CC(C)(C)N([O])C2(C)C)O1 | 0.408 (≈ 0.725 µM) | 0.223 (≈ 0.396 µM) | 0.273 (≈ 0.485 µM) | 0.075 (≈ 0.133 µM) | – | – | – | –
C=C(C)[C@H]1Cc2c(ccc3c2O[C@@H]2COc4cc(OC)c(OC)cc4[C@@H]2/C3=N\OC(=O)C2=CC(C)(C)N([O])C(C)(C)C2)O1 | 0.542 (≈ 0.919 µM) | 0.358 (≈ 0.607 µM) | 0.575 (≈ 0.975 µM) | 0.162 (≈ 0.275 µM) | – | – | – | –
CC(=O)O[C@H]1C(=O)[C@@]2(C)[C@H]([C@H](OC(=O)c3ccccc3)[C@]3(O)C[C@H](OC(=O)[C@H](O)[C@@H](NC(=O)c4ccccc4)c4ccccc4)C(C)=C1C3(C)C)[C@]1(OC(C)=O)CO[C@@H]1C[C@@H]2O [PACLITAXEL] | – | – | – | – | – | 0.0037 (≈ 0.00433 µM) | 0.0048 (≈ 0.00562 µM) | 1.15 (≈ 1.34 µM)
C=C(C)[C@H]1Cc2c(ccc3c2O[C@@H]2COc4cc(OC)c(OC)cc4[C@@H]2[C@@H]3OC(=O)[C@@H](NC(=O)OC2CC(C)(C)N([O])C(C)(C)C2)C(C)CC)O1 (some centres not stated) | 0.649 (≈ 0.917 µM) | 0.396 (≈ 0.559 µM) | 0.516 (≈ 0.729 µM) | 0.399 (≈ 0.564 µM) | – | – | – | –
